How the values were obtained:
[1] = target: EntF+YbdZ (Escherichia coli, UniProt P11454); test: substrate activation assay; format: biochemical; details: co-purified with YbdZ; two values for two different preparations
[2] = target: EntF (EntF-H6) (Escherichia coli, UniProt P11454); test: substrate activation assay; format: biochemical; details: without YbdZ; two values for two different preparations
[3] = target: H6-CmnO; test: co-purification after co-expression
[4] = substrate: O=C(O)c1cccc(O)c1O; test: substrate activation assay; format: biochemical, Escherichia coli; details: without YbdZ

EntF (EntF-H6), sequence (P11454 whole entry): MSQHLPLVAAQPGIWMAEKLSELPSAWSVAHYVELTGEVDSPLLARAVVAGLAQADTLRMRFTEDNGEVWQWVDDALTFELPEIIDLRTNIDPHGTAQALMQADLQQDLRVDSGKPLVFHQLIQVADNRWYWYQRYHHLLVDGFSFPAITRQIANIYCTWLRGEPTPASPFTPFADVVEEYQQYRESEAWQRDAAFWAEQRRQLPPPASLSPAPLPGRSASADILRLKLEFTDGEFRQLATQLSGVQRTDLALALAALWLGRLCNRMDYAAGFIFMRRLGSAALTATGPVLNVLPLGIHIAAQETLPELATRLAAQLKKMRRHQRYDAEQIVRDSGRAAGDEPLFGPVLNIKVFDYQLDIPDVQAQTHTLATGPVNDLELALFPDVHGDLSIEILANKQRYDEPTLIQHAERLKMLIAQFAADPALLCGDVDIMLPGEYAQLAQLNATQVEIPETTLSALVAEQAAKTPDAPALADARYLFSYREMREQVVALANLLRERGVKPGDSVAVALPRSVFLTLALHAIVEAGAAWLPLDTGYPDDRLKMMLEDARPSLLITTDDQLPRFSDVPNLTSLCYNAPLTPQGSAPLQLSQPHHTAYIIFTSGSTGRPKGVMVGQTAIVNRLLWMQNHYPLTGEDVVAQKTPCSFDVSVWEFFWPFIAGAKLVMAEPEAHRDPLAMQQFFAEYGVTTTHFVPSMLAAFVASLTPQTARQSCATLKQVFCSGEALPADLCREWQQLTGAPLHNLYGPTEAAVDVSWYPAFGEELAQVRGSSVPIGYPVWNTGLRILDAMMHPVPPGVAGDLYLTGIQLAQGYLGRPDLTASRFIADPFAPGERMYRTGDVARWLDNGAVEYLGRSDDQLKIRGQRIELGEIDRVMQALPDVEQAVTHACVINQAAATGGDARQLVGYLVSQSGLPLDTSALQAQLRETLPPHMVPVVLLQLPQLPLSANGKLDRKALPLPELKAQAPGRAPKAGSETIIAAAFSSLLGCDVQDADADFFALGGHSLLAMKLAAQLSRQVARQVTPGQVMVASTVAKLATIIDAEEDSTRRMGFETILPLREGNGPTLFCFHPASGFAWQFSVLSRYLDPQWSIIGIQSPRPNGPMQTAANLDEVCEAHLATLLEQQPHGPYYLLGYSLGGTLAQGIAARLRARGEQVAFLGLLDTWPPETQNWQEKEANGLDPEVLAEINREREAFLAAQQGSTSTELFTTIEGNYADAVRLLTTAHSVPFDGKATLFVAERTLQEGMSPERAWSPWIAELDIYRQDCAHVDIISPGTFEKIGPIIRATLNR
EntF+YbdZ, sequence (P11454 whole entry): as above
EntF+YbdZ, sequence (P18393 2-72 partner limits assumed): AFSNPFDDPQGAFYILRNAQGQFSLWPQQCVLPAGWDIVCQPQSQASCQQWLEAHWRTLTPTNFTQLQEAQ

## N[C@@H](CO)C(=O)O [L-Ser]
[1]
  Km ^a: 655.9 ± 53.0, 240.1 ± 46.7 μM
[2]
  Km ^a: 7162.1 ± 413.5, 4589.5 ± 313.0 μM

## CmnN (natural protein)
[3]
  stoichiometry N (mol CmnN per mol H6-CmnO): 0.42

B1: EntE (H6-EntE) (Escherichia coli K-12) (protein)
chain: MSIPFTRWPEEFARRYREKGYWQDLPLTDILTRHAASDSIAVIDGERQLSYRELNQAADNLACSLRRQGIKPGETALVQLGNVAELYITFFALLKLGVAPVLALFSHQRSELNAYASQIEPALLIADRQHALFSGDDFLNTFVTEHSSIRVVQLLNDSGEHNLQDAINHPAEDFTATPSPADEVAYFQLSGGTTGTPKLIPRTHNDYYYSVRRSVEICQFTQQTRYLCAIPAAHNYAMSSPGSLGVFLAGGTVVLAADPSATLCFPLIEKHQVNVTALVPPAVSLWLQALIEGESRAQLASLKLLQVGGARLSATLAARIPAEIGCQLQQVFGMAEGLVNYTRLDDSAEKIIHTQGYPMCPDDEVWVADAEGNPLPQGEVGRLMTRGPYTFRGYYKSPQHNASAFDANGFYCSGDLISIDPEGYITVQGREKDQINRGGEKIAAEEIENLLLRHPAVIYAALVSMEDELMGEKSCAYLVVKEPLRAVQVRRFLREQGIAEFKLPDRVECVDSLPLTAVGKVDKKQLRQWLASRASA
[4]
  Km: 2.9 ± 0.4 µM

From paper PMC2974439 (Biochemistry, 2010)
